Data from PubChem BioAssay AID256 (DTP/NCI, 2004).
Several values for one entry are separate records, joined by “and”; a condition that tells them apart may be missing. Equal entries are not always repeated. Toxic doses and inconclusive results are not listed. Rule for the calls: active = survival T/C of 150% or more; inactive = T/C below 125% in these data.

Tested on: CD2F1 mice, L1210 leukemia ip, survival T/C
Assay: NCI In Vivo Anticancer Drug Screen. Data for tumor model L1210 Leukemia (intraperitoneal) in CD2F1 (CDF1) mice
Details: endpoint: mean survival time, higher = longer survival
Procedure, shortened: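 Compound-dosed mice with transplantable tumor versus matched vehicle controls; endpoint ratio T/C reported.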

[1] = dose: 100.0 mg/kg/injection, schedule: Q04DX003 (ip), vehicle: saline with Tween-80
[2] = dose: 200.0 mg/kg/injection, schedule: Q04DX003 (ip), vehicle: saline with Tween-80
[3] = dose: 400.0 mg/kg/injection, schedule: Q04DX003 (ip), vehicle: saline with Tween-80
[4] = dose: 100.0 mg/kg/injection, schedule: Q01DX001 (ip), vehicle: saline with Tween-80
[5] = dose: 25.0 mg/kg/injection, schedule: Q01DX009 (ip), vehicle: saline with Tween-80
[6] = dose: 50.0 mg/kg/injection, schedule: Q01DX009 (ip), vehicle: saline with Tween-80
[7] = dose: 100.0 mg/kg/injection, schedule: Q01DX009 (ip), vehicle: saline with Tween-80
[8] = dose: 200.0 mg/kg/injection, schedule: Q01DX009 (ip), vehicle: saline with Tween-80
[9] = dose: 12.5 mg/kg/injection, schedule: Q01DX009 (ip), vehicle: saline with Tween-80
[10] = dose: 400.0 mg/kg/injection, schedule: Q01DX009 (ip), vehicle: saline with Tween-80

Measured: T/C

CCCCCCCCCC(C(=O)OCC)(C(=O)OCC)C1CCCC1
inactive: dose: 100.0 mg/kg/injection, schedule: Q01DX001 (ip), vehicle: saline sonified 106 % of control | [1] 100 % of control | dose: 200.0 mg/kg/injection, schedule: Q01DX001 (ip), vehicle: saline sonified 100 % of control | [2] 100 % of control | dose: 400.0 mg/kg/injection, schedule: Q01DX001 (ip), vehicle: saline sonified 90 % of control | [3] 97 % of control

Cn1c2ccccc2c2ccccc21
inactive: [1] 100 % of control | [2] 102 % of control | [3] 97 % of control

CC(C)CCn1cnc2c(=S)nc(N)[nH]c21
inactive: dose: 50.0 mg/kg/injection, schedule: Q01DX001 (ip), vehicle: saline with Tween-80 118 % of control | [4] 95 % of control

O=C1OC(C(Cl)(Cl)Cl)OC1C(Cl)(Cl)Cl (centres undefined)
inactive: [4] 97 % of control

COC(=O)[C@@H]1c2cc3c(c(O)c2[C@@H](OC2OC(C)C(OC)C(C)(OC)C2OC)C[C@]1(C)O)C(=O)c1c(O)cc2c(c1C3=O)O[C@H]1O[C@]2(C)[C@H](O)[C@@H](N(C)C)[C@@H]1O (some centres undefined)
inactive: dose: 0.25 mg/kg/injection, schedule: Q01DX009 (ip), vehicle: other 120 % of control and 112 % of control | dose: 0.5 mg/kg/injection, schedule: Q01DX009 (ip), vehicle: other 116 % of control and 108 % of control | dose: 1.0 mg/kg/injection, schedule: Q01DX009 (ip), vehicle: other 93 % of control and 110 % of control

O=C(O)Cn1nnc2ccccc21
inactive: [5] 100 % of control | dose: 25.0 mg/kg/injection, schedule: Q01DX009 (ip), vehicle: saline 102 % of control | [6] 97 % of control | dose: 50.0 mg/kg/injection, schedule: Q01DX009 (ip), vehicle: saline 102 % of control | [7] 97 % of control | dose: 100.0 mg/kg/injection, schedule: Q01DX009 (ip), vehicle: saline 98 % of control | [8] 100 % of control | dose: 200.0 mg/kg/injection, schedule: Q01DX009 (ip), vehicle: saline 100 % of control

Cc1ccc(NC(=O)c2ccc(C(=O)Nc3ccc(C)c(Cl)c3)cc2)cc1Cl
inactive: dose: 100.0 mg/kg/injection, schedule: Q01DX001 (ip), vehicle: saline 89 % of control | dose: 200.0 mg/kg/injection, schedule: Q01DX001 (ip), vehicle: saline 98 % of control | dose: 400.0 mg/kg/injection, schedule: Q01DX001 (ip), vehicle: saline 89 % of control

C(=NCCN1CCOCC1)=NC1CCCCC1
inactive: dose: 3.13 mg/kg/injection, schedule: Q01DX009 (ip), vehicle: saline with Tween-80 102 % of control | dose: 6.25 mg/kg/injection, schedule: Q01DX009 (ip), vehicle: saline with Tween-80 91 % of control | dose: 6.25 mg/kg/injection, schedule: Q04DX003 (ip), vehicle: saline with Tween-80 100 % of control | [9] 104 % of control | dose: 12.5 mg/kg/injection, schedule: Q04DX003 (ip), vehicle: saline with Tween-80 92 % of control

Oc1ccc(/C=N/NC(=S)Nc2cccnc2)nc1
inactive: dose: 100.0 mg/kg/injection, schedule: Q04DX002 (ip), vehicle: saline with Tween-80 87 % of control | dose: 200.0 mg/kg/injection, schedule: Q04DX002 (ip), vehicle: saline with Tween-80 87 % of control | dose: 400.0 mg/kg/injection, schedule: Q04DX002 (ip), vehicle: saline with Tween-80 91 % of control

O=S(=O)(O)c1cccc2cnccc12
inactive: [7] 98 % of control | dose: 100.0 mg/kg/injection, schedule: Q04DX003 (ip), vehicle: saline sonified 93 % of control | [8] 96 % of control | dose: 200.0 mg/kg/injection, schedule: Q04DX003 (ip), vehicle: saline sonified 98 % of control | [10] 93 % of control | dose: 400.0 mg/kg/injection, schedule: Q04DX003 (ip), vehicle: saline sonified 98 % of control

CCOC(=O)C(C)(C)Oc1ccc(Cl)cc1
inactive: [9] 100 % of control and 105 % of control | [5] 97 % of control and 98 % of control | [6] 103 % of control and 104 % of control | [4] 94 % of control | [7] 100 % of control and 101 % of control and 103 % of control | dose: 200.0 mg/kg/injection, schedule: Q01DX001 (ip), vehicle: saline with Tween-80 91 % of control | [8] 100 % of control and 101 % of control and 102 % of control | dose: 400.0 mg/kg/injection, schedule: Q01DX001 (ip), vehicle: saline with Tween-80 94 % of control | [10] 100 % of control and 104 % of control and 109 % of control
